Assay results: patent publication US20130158007A1 (KEMPHARM, INC., priority 2010, published 2013)
Structures can show the parent of a compound that is named as a salt.

What was measured:
5-HT2A receptor = 5-HT2A receptor (Homo sapiens, UniProt P28223); conditions: cited from earlier work
histamine H1 receptor = histamine H1 receptor (Homo sapiens, UniProt P35367); conditions: cited from earlier work
M1 muscarinic receptor = molecular target: T1, M1 muscarinic receptor (Homo sapiens, UniProt P11229); conditions: cited from earlier work
T1 sequence (P11229 1-460): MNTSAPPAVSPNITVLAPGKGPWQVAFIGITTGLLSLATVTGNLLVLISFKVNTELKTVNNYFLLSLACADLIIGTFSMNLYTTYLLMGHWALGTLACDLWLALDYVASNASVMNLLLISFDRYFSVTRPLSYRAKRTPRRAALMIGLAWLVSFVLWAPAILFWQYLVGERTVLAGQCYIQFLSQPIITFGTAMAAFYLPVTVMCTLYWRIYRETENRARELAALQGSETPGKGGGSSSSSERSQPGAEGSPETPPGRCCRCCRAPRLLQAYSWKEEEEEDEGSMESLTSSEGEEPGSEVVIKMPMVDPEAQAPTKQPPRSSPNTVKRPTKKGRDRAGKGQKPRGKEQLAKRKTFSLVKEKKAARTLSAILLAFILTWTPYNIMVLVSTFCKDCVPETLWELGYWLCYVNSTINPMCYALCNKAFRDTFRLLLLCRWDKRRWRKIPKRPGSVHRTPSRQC

[1] = molecular target: norepinephrine reuptake transporter (NET) (Homo sapiens, UniProt P23975); conditions: cited from earlier work
[2] = molecular target: T2, serotonin 5-HT1A receptor (Homo sapiens, UniProt P08908); conditions: cited from earlier work
T2 sequence (P08908 1-422): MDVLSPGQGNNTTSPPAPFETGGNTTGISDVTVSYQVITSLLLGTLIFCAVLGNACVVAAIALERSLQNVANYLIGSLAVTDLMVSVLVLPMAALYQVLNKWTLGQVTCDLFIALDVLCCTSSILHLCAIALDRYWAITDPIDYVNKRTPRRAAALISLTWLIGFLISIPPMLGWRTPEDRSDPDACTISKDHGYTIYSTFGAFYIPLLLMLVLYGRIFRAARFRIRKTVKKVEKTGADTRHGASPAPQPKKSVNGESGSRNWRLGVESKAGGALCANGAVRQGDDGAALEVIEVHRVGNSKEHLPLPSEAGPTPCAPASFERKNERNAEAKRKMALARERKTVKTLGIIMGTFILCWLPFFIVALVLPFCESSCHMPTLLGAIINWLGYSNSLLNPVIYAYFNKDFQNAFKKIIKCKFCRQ

[3] = molecular target: serotonin 5-HT1E receptor (Homo sapiens, UniProt P28566); conditions: cited from earlier work
[4] = molecular target: serotonin 5-HT2B receptor (Homo sapiens, UniProt P41595); conditions: cited from earlier work
serotonin 5-HT7 receptor = serotonin 5-HT7 receptor (Homo sapiens, UniProt P34969); conditions: cited from earlier work
α1B-adrenergic receptor = molecular target: T3, α1B-adrenergic receptor (Homo sapiens, UniProt P35368); conditions: cited from earlier work
T3 sequence (P35368 1-520): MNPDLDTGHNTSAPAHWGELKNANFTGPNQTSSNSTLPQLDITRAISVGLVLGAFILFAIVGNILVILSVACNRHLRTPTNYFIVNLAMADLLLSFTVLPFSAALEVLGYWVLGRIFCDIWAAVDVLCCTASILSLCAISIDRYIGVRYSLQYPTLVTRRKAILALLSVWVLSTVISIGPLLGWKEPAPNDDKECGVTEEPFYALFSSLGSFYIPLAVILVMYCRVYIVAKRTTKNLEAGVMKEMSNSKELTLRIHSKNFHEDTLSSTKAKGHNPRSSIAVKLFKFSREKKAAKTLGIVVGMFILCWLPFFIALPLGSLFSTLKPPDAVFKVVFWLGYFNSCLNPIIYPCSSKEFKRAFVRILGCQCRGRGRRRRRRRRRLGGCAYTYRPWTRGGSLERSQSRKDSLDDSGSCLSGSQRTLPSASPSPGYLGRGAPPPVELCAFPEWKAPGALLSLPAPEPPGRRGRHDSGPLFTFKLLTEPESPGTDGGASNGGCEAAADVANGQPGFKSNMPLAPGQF

M3 muscarinic receptor = M3 muscarinic receptor (Homo sapiens, UniProt P20309); conditions: cited from earlier work
M5 muscarinic receptor = molecular target: T4, M5 muscarinic receptor (Homo sapiens, UniProt P08912); conditions: cited from earlier work
T4 sequence (P08912 1-532): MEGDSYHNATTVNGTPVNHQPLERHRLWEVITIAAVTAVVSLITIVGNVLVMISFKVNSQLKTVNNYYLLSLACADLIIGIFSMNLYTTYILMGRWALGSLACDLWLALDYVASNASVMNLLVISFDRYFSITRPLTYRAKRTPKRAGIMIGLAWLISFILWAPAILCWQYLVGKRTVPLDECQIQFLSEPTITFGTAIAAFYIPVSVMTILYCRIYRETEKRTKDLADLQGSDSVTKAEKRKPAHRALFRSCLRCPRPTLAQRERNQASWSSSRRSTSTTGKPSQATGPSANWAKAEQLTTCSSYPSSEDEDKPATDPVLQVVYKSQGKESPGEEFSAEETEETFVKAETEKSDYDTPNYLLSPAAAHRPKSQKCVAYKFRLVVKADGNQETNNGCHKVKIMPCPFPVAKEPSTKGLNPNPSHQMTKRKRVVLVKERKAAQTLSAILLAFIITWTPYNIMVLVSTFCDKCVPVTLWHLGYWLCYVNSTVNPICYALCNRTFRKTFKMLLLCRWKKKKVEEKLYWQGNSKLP

5-HT1A receptor = molecular target: T5, 5-HT1A receptor (Homo sapiens, UniProt P08908); conditions: relative to quetiapine; cited from earlier work
T5 sequence (P08908 1-422): T2 sequence (P08908 1-422)

[5] = oral solution
[6] = cited from earlier work
leptin = conditions: chronic oral administration for 6 weeks; cited from earlier work
[7] = clinical trials; cited from earlier work
dopaminergic D1 receptor = dopaminergic D1 receptor (Homo sapiens, UniProt P21728); conditions: cerebral receptors; cited from earlier work
dopaminergic D2 receptor = dopaminergic D2 receptor (Homo sapiens, UniProt P14416); conditions: cerebral receptors; cited from earlier work
a1-adrenergic receptors = conditions: cited from earlier work
α2-adrenergic receptors = conditions: cited from earlier work
[8] = patients, cited from earlier work
[9] = in vivo; cited from earlier work

norepinephrine reuptake transporter (NET), sequence (P23975 whole entry): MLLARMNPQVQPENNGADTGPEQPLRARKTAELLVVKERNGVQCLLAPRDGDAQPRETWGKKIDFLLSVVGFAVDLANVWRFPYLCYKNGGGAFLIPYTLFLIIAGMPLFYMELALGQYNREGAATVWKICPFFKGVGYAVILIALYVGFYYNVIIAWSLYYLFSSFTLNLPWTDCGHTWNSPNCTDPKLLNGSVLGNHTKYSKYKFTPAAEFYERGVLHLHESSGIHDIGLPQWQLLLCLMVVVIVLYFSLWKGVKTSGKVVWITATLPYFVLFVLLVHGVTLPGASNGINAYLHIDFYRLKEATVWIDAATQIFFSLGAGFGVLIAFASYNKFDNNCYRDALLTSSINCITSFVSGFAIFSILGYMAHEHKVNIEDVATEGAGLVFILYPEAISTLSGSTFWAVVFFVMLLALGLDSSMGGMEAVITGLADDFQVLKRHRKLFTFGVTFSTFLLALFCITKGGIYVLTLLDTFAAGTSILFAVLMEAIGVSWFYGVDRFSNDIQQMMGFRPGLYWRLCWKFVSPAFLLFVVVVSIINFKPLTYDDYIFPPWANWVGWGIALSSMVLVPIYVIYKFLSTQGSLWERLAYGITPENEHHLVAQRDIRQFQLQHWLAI
5-HT2A receptor, sequence (P28223 whole entry): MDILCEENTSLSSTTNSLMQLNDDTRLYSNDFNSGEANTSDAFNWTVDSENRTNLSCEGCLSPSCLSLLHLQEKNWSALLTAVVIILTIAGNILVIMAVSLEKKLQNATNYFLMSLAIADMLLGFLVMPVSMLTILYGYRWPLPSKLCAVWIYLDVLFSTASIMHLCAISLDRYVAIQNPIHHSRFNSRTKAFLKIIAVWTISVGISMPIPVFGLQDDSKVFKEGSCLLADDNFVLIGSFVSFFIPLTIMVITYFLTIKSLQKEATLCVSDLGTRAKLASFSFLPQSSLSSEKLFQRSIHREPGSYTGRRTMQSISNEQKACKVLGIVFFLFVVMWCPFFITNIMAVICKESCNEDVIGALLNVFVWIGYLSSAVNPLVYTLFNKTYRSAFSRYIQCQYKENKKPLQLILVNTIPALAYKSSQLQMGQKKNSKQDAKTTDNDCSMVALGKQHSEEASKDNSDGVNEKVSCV
M3 muscarinic receptor, sequence (P20309 whole entry): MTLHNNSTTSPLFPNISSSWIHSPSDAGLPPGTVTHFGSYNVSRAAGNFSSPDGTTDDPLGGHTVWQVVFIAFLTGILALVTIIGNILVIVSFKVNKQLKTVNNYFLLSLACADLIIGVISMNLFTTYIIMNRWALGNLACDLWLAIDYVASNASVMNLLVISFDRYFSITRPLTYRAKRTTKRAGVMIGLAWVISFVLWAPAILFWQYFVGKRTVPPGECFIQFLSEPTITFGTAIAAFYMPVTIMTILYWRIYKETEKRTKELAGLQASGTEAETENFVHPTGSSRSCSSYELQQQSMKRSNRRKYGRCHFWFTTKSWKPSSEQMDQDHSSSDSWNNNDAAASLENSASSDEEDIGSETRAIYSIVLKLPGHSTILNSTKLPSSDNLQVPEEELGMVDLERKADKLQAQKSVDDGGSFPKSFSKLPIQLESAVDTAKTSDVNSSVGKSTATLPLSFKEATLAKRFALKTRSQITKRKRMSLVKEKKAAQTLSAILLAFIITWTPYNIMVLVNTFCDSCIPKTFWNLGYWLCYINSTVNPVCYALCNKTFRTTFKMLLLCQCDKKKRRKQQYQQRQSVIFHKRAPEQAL
dopaminergic D2 receptor, sequence (P14416 whole entry): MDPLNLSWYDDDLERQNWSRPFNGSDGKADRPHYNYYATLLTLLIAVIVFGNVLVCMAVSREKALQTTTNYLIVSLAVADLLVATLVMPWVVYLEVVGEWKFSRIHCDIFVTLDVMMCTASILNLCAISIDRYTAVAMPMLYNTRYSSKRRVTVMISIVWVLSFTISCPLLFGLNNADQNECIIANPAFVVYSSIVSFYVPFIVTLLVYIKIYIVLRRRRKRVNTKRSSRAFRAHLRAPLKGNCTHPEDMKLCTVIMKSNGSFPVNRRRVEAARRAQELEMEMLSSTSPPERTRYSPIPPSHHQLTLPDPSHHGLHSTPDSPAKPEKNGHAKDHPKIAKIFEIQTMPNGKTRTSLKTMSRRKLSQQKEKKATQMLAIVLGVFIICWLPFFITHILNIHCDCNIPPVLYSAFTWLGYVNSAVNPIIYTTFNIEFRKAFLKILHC
serotonin 5-HT7 receptor, sequence (P34969 whole entry): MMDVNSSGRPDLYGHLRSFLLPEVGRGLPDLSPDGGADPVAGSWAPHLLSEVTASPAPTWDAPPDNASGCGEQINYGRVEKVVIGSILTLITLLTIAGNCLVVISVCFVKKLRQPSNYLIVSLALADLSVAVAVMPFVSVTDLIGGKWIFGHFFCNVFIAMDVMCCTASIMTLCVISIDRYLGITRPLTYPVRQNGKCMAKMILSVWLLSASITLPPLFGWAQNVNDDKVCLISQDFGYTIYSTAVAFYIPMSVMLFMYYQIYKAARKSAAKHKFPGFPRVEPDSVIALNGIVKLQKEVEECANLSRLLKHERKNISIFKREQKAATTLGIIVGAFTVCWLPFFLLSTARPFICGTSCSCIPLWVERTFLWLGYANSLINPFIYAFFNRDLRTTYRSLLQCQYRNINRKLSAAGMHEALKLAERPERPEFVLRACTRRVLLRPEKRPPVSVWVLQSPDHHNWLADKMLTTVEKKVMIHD
dopaminergic D1 receptor, sequence (P21728 whole entry): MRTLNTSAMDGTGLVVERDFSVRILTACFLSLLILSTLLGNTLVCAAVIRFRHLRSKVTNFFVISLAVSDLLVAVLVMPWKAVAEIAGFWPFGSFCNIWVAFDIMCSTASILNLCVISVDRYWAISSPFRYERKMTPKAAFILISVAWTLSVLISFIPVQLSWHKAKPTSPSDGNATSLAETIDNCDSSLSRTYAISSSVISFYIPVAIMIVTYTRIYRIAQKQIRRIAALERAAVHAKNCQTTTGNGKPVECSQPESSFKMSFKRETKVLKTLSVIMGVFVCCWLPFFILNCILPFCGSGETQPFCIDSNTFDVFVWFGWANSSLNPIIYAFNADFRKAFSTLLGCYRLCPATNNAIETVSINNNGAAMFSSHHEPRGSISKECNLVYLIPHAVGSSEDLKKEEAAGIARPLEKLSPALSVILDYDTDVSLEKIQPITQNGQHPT
histamine H1 receptor, sequence (P35367 whole entry, species assumed): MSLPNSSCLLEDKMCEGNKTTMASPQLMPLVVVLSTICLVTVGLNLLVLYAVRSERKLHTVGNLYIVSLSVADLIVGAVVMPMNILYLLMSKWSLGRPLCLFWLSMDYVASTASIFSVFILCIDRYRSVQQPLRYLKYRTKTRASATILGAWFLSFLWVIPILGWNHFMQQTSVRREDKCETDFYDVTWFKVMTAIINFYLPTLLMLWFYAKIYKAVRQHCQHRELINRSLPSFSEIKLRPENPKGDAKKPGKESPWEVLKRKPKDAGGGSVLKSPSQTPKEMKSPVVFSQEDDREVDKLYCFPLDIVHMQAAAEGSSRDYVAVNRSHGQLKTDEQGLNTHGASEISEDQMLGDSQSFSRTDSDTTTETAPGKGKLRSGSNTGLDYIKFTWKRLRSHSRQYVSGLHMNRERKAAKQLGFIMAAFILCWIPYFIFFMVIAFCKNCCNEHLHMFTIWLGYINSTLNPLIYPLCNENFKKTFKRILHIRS
serotonin 5-HT2B receptor, sequence (P41595 whole entry): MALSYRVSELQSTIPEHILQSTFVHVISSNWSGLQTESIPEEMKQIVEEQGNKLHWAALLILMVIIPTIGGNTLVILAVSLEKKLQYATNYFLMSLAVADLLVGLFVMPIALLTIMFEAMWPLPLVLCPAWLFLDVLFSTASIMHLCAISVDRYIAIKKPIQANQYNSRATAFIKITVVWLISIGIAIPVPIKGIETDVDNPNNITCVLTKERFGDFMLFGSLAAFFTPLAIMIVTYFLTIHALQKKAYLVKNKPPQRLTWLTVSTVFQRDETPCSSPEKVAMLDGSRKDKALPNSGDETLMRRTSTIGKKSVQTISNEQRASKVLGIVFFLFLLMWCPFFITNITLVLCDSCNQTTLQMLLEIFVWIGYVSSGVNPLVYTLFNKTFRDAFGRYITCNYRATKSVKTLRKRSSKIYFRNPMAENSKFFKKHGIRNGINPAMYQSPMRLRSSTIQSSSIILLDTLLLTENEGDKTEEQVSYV
serotonin 5-HT1E receptor, sequence (P28566 whole entry): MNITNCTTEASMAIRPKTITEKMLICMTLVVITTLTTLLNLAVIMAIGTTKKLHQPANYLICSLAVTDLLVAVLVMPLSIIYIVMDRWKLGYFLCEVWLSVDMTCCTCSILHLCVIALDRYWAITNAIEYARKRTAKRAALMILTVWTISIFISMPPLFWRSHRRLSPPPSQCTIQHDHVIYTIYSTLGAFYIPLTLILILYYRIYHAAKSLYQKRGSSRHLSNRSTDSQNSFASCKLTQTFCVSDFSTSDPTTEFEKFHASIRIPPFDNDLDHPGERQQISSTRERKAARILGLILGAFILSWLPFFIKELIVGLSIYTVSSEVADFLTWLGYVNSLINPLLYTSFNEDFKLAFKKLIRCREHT

SMILES: c1ccc2c(c1)N=C(N1CCNCC1)c1ccccc1S2 [N-desalkyl-quetiapine]
- affinity (5-HT2A receptor): moderate affinities
- affinity (histamine H1 receptor): high affinity
- affinity (M1 muscarinic receptor): moderate affinities
- affinity [1]: moderate affinities
- avidity for inhibiting human NET, fold higher than quetiapine ([1]; relative to quetiapine): about 100 fold
- affinity [2]: moderate affinities
- affinity [3]: moderate affinities
- affinity [4]: moderate affinities
- affinity (serotonin 5-HT7 receptor): moderate affinities
- affinity (α1B-adrenergic receptor): moderate affinities
- affinity (M3 muscarinic receptor): moderate affinities
- affinity (M5 muscarinic receptor): moderate affinities
- potency at the 5-HT1A receptor, fold more potent than quetiapine (5-HT1A receptor): 10 fold

SMILES: OCCOCCN1CCN(C2=Nc3ccccc3Sc3ccccc32)CC1 [quetiapine fumarate]
- solubility for dosing via oral gavage in rats [5]: not soluble enough

SMILES: OCCOCCN1CCN(C2=Nc3ccccc3Sc3ccccc32)CC1 [quetiapine, 2-(2-(4-(dibenzo[b,f][1,4]thiazepin-11-yl)piperazin-1-yl)ethoxy)ethanol]
- terminal half-life time for elimination ([6]; in vivo): about 7 hours
- Absolute bioavailability ([6]; oral): 9%
- increase in leptin release (leptin): about 37%
- prolongation of the QT interval [7]: small insignificant prolongations
- affinity (dopaminergic D1 receptor): major affinity
- affinity (dopaminergic D2 receptor): major affinity
- affinity (a1-adrenergic receptors): moderate affinity
- affinity (α2-adrenergic receptors): moderate affinity

SMILES: CCCC(CCC)C(=O)O [valproic acid, 2-propylpentanoic acid]
- time to response ([8]; acute mania): 1-2 weeks
- response rate in acute mania ([8]; placebo effect 20-30%): around 50%
- response rate in bipolar depression [9]: ~30%
